Reference: patent US4294833A, “Substituted 4-hydroxy-isophthalic acid picolylamides having a pharmaceutical activity in thromboembolic disorders” (Societa Italo-Britannica, priority 1977, dated 1981)

Experiments:
[1] = test system: platelet aggregation induced by ADP; experiment: Platelet aggregation inhibitory activity in vivo (Born aggregometer), ADP-induced; parameters: species or system New Zealand rabbits; conditions: Oryctolagus cuniculus, Platelet, ip, dose for 50% inhibition of ADP-induced aggregation curve; rabbits, intraperitoneal, blood 2, 4 and 6 hours after injection; read-out: platelet antiaggregant activity (AAP), DI50, ADP
Procedure: (§1) Determination of the platelet aggregation inhibitory activity in vivo
(§2) The activity of the above described compounds as platelet antiaggregant was tested in vivo on rabbits, by the Born aggregometer. The inhibition of the aggregation curve induced by ADP and thrombin was assessed with different drug concentrations according to the platelet reactivity. New Zealand rabbits which had been held fasting for 12 hours with water ad libitum, were anaesthetized with Nembutal in a dose of 35 mg/kg intramuscolarly. The blood was withdrawn from the carotidal arthery, before (control) and 2, 4, and 6 hours after the intraperitoneal injection of the compounds under examination (at the dose indicated below). The blood samples were taken up in a 3.8% aqueous solution of sodium citrate in a ratio 10:1 and thereupon centrifuged at 1500 r.p.m. for 10 minutes, for obtaining a PRP (platelet rich plasma). A portion of such a plasma was thereupon centrifuged at 8000 r.p.m. for 10 minutes, for obtaining a PPP (platelet lean plasma) which was used for zeroing the measuring apparatus.
(§3) From the results of said experiments, there was determined the dose of each product in mg/kg body weight able to induce a 50% inhibition of the aggregation curve (DI50) after treatment, referred to the curve obtained by the same control plasma before treatment.
(§4) In tables I and II are further indicated for each compound the method of preparation; the melting point PF in °C; the platelet antiaggregant activity (AAP) expressed in terms of DI50 in mg/kg, referred to ADP and thrombin respectively; the antithrombin activity (AT) in %; the anticoagulant activity (AC) in %; the fibrinolytic activity (FL) in %; the acute toxicity (LD50) in mice, intraperitoneally, in mg/kg, as previously defined.

[2] = Acute toxicity, intraperitoneal; conditions: mouse, in vivo, ip, male Swiss mice, intraperitoneal, 7 days observation; preliminary, by graphic interpolation; read-out: acute toxicity (LD50 / DL50)
Procedure: The acute toxicity limit was determined intraperitoneally on male Swiss mice, weighing 20±2 g, held fasting for 18 hours with water ad libitum.
The animals were maintained under observation for 7 days of treatment, by examining the general symptomatology and noting the death sequency. The preliminary DL50 in mg/kg body weight was calculated by graphic interpolation of the results as obtained.
as §4

[3] = test system: thrombin-induced coagulation of platelet rich plasma; experiment: Antithrombin activity on PRP, Hartert's thromboelastograph; assay type: in vivo, New Zealand rabbits; conditions: Oryctolagus cuniculus, Platelet, ip, percent decrease of index ma/[r+k] vs before treatment; 20 mg/kg intraperitoneal, rabbits
Procedure: Determination of the antithrombin activity
The antithrombin activity on the PRP (platelet rich plasma) obtained following the above described method was assessed by Hartert's thromboelastograph (Hellige model). The coagulation was induced by adding to 0.25 ml of plasma 0.06 ml of a thrombin solution (Roche Topostasin® per os) at 60 units*, pH 7.4**. The antithrombin activity was assessed in terms of a percent decrease of the index (ma/[r+k]) which was calculated from the thromboelastograph diagram, wherein r is the reaction time, k is the speed of the coagulum formation and ma is the maximum spread of the tong, after an intraperitoneal treatment with a dose of 20 mg/kg of each compound under examination, referred to the same index obtained before the treatment (control).
as §4

blood coagulum = experiment: Fibrinolytic activity, Fearnley method (lysis of blood coagulum in toto); assay type: in vivo; conditions: Oryctolagus cuniculus, ip, 0.5 h, percent decrease of coagulum weight after 30 minutes at 37° C.; 25 mg/kg intraperitoneal, rabbits; read-out: fibrinolytic activity (FL)
Procedure: Determination of the fibrinolytic activity
The determination of the fibrinolytic activity was made following the Fearnley method for the lysis of the blood coagulum in toto.
0.2 ml of blood were withdrawn from the marginal vein of the ear of rabbits treated in the same way as the previously described tests, before and after an intraperitoneal injection of the compounds under test at a dose level of 25 mg/kg for each compound.
The blood samples were placed in test tubes containing 1.7 ml of phosphate buffer at pH 7.4 and 0.1 ml of thrombin (Roche Topostasin ® per os) at 50 units NIH/ml, and maintained in an ice bath. The test tubes were maintained at said temperature for 30 minutes and thereupon were transferred to a temperature controlled water bath at 37° C.
The fibrinolytic activity was determined as a percent decrease of the coagulum weight, measured after incubation for 30 minutes at 37° C.
as §4

[4] = test system: platelet aggregation induced by thrombin; experiment: Platelet aggregation inhibitory activity in vivo (Born aggregometer), thrombin-induced; parameters: species or system New Zealand rabbits; conditions: Oryctolagus cuniculus, Platelet, ip, dose for 50% inhibition of thrombin-induced aggregation curve; rabbits, intraperitoneal, blood 2, 4 and 6 hours after injection; read-out: platelet antiaggregant activity (AAP), DI50, Thrombin
Procedure: as §1, §2, §3, §4

[5] = test system: CaCl2-induced plasma coagulation; experiment: Anticoagulant activity on PRP, Hartert's thromboelastograph; assay type: in vivo, New Zealand rabbits; conditions: Oryctolagus cuniculus, ip, percent increase of total time for coagulum formation (r+k) vs before treatment; 25 mg/kg intraperitoneal, rabbits; read-out: anticoagulant activity (AC)
Procedure: Determination of the anticoagulant activity
The anticoagulant activity was also assessed on PRP of animals treated as described in the preceding methods, by using again Hartert's thromboelastograph method.
The plasma coagulation was induced by adding to 0.25 ml PRP a 1.29% solution of CaCl2.
The anticoagulant effect was determined as a percent increase of the total time for the coagulum formation (the index r+k can be obtained from the thromboelastograph diagram) in a plasma after treatment, referred to the same index obtained before the treatment (control). Again the dose level was 25 mg/kg for each compound under examination, intraperitoneally.
as §4

**Q.** What does the source list for `C=C(C)Oc1c(Cl)cc(C(=O)N(C)Cc2ccncc2)cc1C(=O)N(C)Cc1ccncc1` [Example 68]?
**A.** ED50 [1]: 47.5 mg/kg; LD50 at 168 h [2]: 255 mg/kg; inhibition in vivo at 20 mg/kg [3]: 35.2%; fibrinolytic activity (percent decrease of coagulum weight) at 25 mg/kg (blood coagulum): 30%; ED50 [4]: 30 mg/kg; change in vivo at 25 mg/kg [5]: 15.5%

**Q.** Which results are given for `C=CC(C)Oc1ccc(C(=O)NCc2ccncc2)cc1C(=O)NCc1ccncc1` (stereo not drawn) [Example 64]?
**A.** ED50 [1]: 35.1 mg/kg; LD50 at 168 h [2]: 360 mg/kg; inhibition in vivo at 20 mg/kg [3]: 45.9%; fibrinolytic activity (percent decrease of coagulum weight) at 25 mg/kg (blood coagulum): 33.6%; ED50 [4]: 24 mg/kg; change in vivo at 25 mg/kg [5]: 19.2%

**Q.** Which results are given for `COc1ccc(C(=O)N(C)Cc2cccnc2)cc1C(=O)N(C)Cc1cccnc1` [Example 39]?
**A.** ED50 [1]: 59.8 mg/kg; LD50 at 168 h [2]: 610 mg/kg; inhibition in vivo at 20 mg/kg [3]: 26.6%; fibrinolytic activity (percent decrease of coagulum weight) at 25 mg/kg (blood coagulum): 19.2%; ED50 [4]: 42 mg/kg; change in vivo at 25 mg/kg [5]: 12.5%

**Q.** With `CCOc1ccc(C(=O)N(Cc2cccnc2)CC(C)C)cc1C(=O)N(Cc1cccnc1)CC(C)C` [Example 44] as the compound, how does the ED50 [1] read?
**A.** The ED50 was 28.7 mg/kg.

**Q.** What about the LD50 at 168 h [2] of the same compound?
**A.** The LD50 at 168 h was 465 mg/kg.

**Q.** What about the inhibition in vivo at 20 mg/kg [3] of the same compound?
**A.** Its inhibition in vivo at 20 mg/kg is 38.6%.

**Q.** And the fibrinolytic activity (percent decrease of coagulum weight) at 25 mg/kg (blood coagulum)?
**A.** The fibrinolytic activity (percent decrease of coagulum weight) at 25 mg/kg was 32.5%.

**Q.** What about the ED50 [4] of the same compound?
**A.** The ED50 was 20.9 mg/kg.

**Q.** And the change in vivo at 25 mg/kg [5]?
**A.** The change in vivo at 25 mg/kg was 19.3%.

**Q.** Which ED50 [1] does the source give for `CC(C)CCOc1c(Cl)cc(C(=O)NCc2cccnc2)cc1C(=O)NCc1cccnc1` [Example 27] here?
**A.** Its ED50 is 40 mg/kg.

**Q.** What about the LD50 at 168 h [2] of the same compound?
**A.** Its LD50 at 168 h is 195 mg/kg.

**Q.** What about the inhibition in vivo at 20 mg/kg [3] of the same compound?
**A.** Its inhibition in vivo at 20 mg/kg is 35.1%.

**Q.** And the fibrinolytic activity (percent decrease of coagulum weight) at 25 mg/kg (blood coagulum)?
**A.** The fibrinolytic activity (percent decrease of coagulum weight) at 25 mg/kg was 28.8%.

**Q.** And the ED50 [4]?
**A.** Its ED50 is 27.9 mg/kg.

**Q.** What about the change in vivo at 25 mg/kg [5] of the same compound?
**A.** Its change in vivo at 25 mg/kg is 23.8%.

**Q.** For `CCCCOc1c(Cl)cc(C(=O)NCc2cccnc2)cc1C(=O)NCc1cccnc1` [Example 26], which ED50 [1] is on record?
**A.** The ED50 was 43.7 mg/kg.

**Q.** And the LD50 at 168 h [2]?
**A.** The LD50 at 168 h was 205 mg/kg.

**Q.** And the inhibition in vivo at 20 mg/kg [3]?
**A.** Its inhibition in vivo at 20 mg/kg is 33.5%.

**Q.** And the fibrinolytic activity (percent decrease of coagulum weight) at 25 mg/kg (blood coagulum)?
**A.** The fibrinolytic activity (percent decrease of coagulum weight) at 25 mg/kg was 28.4%.

**Q.** What about the ED50 [4] of the same compound?
**A.** The ED50 was 30.2 mg/kg.

**Q.** What about the change in vivo at 25 mg/kg [5] of the same compound?
**A.** The change in vivo at 25 mg/kg was 22.2%.

**Q.** With `COc1c(Cl)cc(C(=O)NCc2ccncc2)cc1C(=O)NCc1ccncc1` [Example 66] as the compound, how does the ED50 [1] read?
**A.** Its ED50 is 67.2 mg/kg.

**Q.** What about the LD50 at 168 h [2] of the same compound?
**A.** The LD50 at 168 h was 437 mg/kg.

**Q.** What about the inhibition in vivo at 20 mg/kg [3] of the same compound?
**A.** The inhibition in vivo at 20 mg/kg was 25%.

**Q.** And the fibrinolytic activity (percent decrease of coagulum weight) at 25 mg/kg (blood coagulum)?
**A.** The fibrinolytic activity (percent decrease of coagulum weight) at 25 mg/kg was 20.2%.

**Q.** And the ED50 [4]?
**A.** Its ED50 is 42.5 mg/kg.

**Q.** And the change in vivo at 25 mg/kg [5]?
**A.** The change in vivo at 25 mg/kg was 13.6%.

**Q.** What does the source list for `C=CCOc1ccc(C(=O)NCc2ccncc2)cc1C(=O)NCc1ccncc1` [Example 61]?
**A.** ED50 [1]: 28.6 mg/kg; LD50 at 168 h [2]: 392 mg/kg; inhibition in vivo at 20 mg/kg [3]: 52.8%; fibrinolytic activity (percent decrease of coagulum weight) at 25 mg/kg (blood coagulum): 45%; ED50 [4]: 19.5 mg/kg; change in vivo at 25 mg/kg [5]: 15.6%

**Q.** For `C=C(C)COc1ccc(C(=O)N(Cc2cccnc2)C(C)C)cc1C(=O)N(Cc1cccnc1)C(C)C` [Example 56], which ED50 [1] is on record?
**A.** Its ED50 is 29.1 mg/kg.

**Q.** And the LD50 at 168 h [2]?
**A.** The LD50 at 168 h was 352 mg/kg.

**Q.** What about the inhibition in vivo at 20 mg/kg [3] of the same compound?
**A.** The inhibition in vivo at 20 mg/kg was 47.3%.

**Q.** And the fibrinolytic activity (percent decrease of coagulum weight) at 25 mg/kg (blood coagulum)?
**A.** Its fibrinolytic activity (percent decrease of coagulum weight) at 25 mg/kg is 38.1%.

**Q.** What about the ED50 [4] of the same compound?
**A.** Its ED50 is 21.4 mg/kg.

**Q.** What about the change in vivo at 25 mg/kg [5] of the same compound?
**A.** The change in vivo at 25 mg/kg was 18.6%.

**Q.** With `CC(C)(C)Oc1ccc(C(=O)NCc2cccnc2)cc1C(=O)NCc1cccnc1` [Example 16] as the compound, how does the ED50 [1] read?
**A.** Its ED50 is 45.2 mg/kg.

**Q.** What about the LD50 at 168 h [2] of the same compound?
**A.** The LD50 at 168 h was 325 mg/kg.

**Q.** And the inhibition in vivo at 20 mg/kg [3]?
**A.** Its inhibition in vivo at 20 mg/kg is 27.6%.

**Q.** What about the fibrinolytic activity (percent decrease of coagulum weight) at 25 mg/kg (blood coagulum) of the same compound?
**A.** Its fibrinolytic activity (percent decrease of coagulum weight) at 25 mg/kg is 21.9%.

**Q.** What about the ED50 [4] of the same compound?
**A.** The ED50 was 30.3 mg/kg.

**Q.** And the change in vivo at 25 mg/kg [5]?
**A.** Its change in vivo at 25 mg/kg is 13.6%.

**Q.** What does the source list for `C=C(C)COc1ccc(C(=O)N(CCC)Cc2ccncc2)cc1C(=O)N(CCC)Cc1ccncc1` [Example 70]?
**A.** ED50 [1]: 30.6 mg/kg; LD50 at 168 h [2]: 360 mg/kg; inhibition in vivo at 20 mg/kg [3]: 48.2%; fibrinolytic activity (percent decrease of coagulum weight) at 25 mg/kg (blood coagulum): 39.3%; ED50 [4]: 20.8 mg/kg; change in vivo at 25 mg/kg [5]: 18.9%
